Data published in patent publication US20070093433A1, “Aminoglycoside antibiotics for use as vap-1/ssao inhibitors” (priority 2003, published 2007).

How the values were obtained:
[1] = biological target: T1, VAP-1 (Homo sapiens, UniProt Q16853); assay: SSAO (amine oxidase) activity of VAP-1 transfected cells, radiochemical [14C]-benzylamine and fluorometric Amplex Red H2O2 assays; assay type: cell-based; set-up: expressed in transfected cells; host or cells: Ax endothelial cells or CHO cells; conditions: for % of inhibition: VAP-1 transfected Ax endothelial or CHO cells, benzylamine substrate, 30 min pre-incubation at 37° C., agents at 1 mg/ml and 100 μg/ml (concentration not given), representative of 2 to 5 experiments; for effect on enzymatic (SSAO) activity of VAP-1, in words: VAP-1 transfected cells, summary of Table I
T1 sequence (Q16853 1-763): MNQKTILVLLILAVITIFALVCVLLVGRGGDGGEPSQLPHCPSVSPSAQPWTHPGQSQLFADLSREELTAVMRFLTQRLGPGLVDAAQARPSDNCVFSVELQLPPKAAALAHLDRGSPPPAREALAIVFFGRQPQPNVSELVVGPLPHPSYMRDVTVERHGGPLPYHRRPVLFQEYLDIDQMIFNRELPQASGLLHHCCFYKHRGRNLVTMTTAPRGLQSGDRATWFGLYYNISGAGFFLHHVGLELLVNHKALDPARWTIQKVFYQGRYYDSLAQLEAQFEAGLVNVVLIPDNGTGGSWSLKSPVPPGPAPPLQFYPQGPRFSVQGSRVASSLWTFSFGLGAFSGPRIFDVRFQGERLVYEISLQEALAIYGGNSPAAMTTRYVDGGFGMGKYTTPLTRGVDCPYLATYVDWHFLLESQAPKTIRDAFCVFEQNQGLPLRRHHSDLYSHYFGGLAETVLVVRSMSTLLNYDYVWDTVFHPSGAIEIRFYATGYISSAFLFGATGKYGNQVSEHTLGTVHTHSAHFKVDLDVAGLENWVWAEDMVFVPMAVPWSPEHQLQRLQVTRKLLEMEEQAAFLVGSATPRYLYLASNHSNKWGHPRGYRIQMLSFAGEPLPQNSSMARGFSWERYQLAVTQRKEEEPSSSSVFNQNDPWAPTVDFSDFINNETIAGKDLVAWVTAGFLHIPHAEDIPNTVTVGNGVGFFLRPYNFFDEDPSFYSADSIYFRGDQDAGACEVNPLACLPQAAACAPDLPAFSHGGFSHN
Procedure: Amine oxidase activity was assayed radiochemically using [7-^14C]-benzylamine hydrochloride (spec. act. 57 mCi/mmol, Amersham) as a substrate. In brief, the cells (VAP-1 transfected Ax endothelial cells or VAP-1 transfected CHO cells and their mock transfected controls) were seeded onto gelatin-coated 24-well tissue culture plates and allowed to reach confluence. Prior to experiments, the cells were rinsed twice with RPMI 1640 and pre-incubated 30 min at 37° C. in 0.3 ml RPMI-1640 medium containing amikacin, tobramycin, gentamicin, streptomicin or geneticin (1 mg/ml). The reaction was initiated by addition of 6 μmol/L [^14C]-benzylamine (40000 dpm) and terminated after 1 hour by citric acid. The aldehydes were extracted into toluene containing diphenyloxazole and the formation of [^14C]-labelled benzaldehyde was quantified by scintillation counting.
SSAO activity of the cells was also independently measured using Amplex Red reagent (10-acetyl-3,7-dihydroxyphenoxazine; Molecular Probes Europe BV), a highly sensitive and stable probe for H2O2. Cultured cells (VAP-1 transfected Ax endothelial cells or VAP-1 transfected CHO cells and their mock transfected controls) were rinsed with Krebs Ringer phosphate glucose (KRPG; 145 mM NaCl, 5.7 mM sodium phosphate, 4.86 mM KCl, 0.54 mM CaCl2, 1.22 mM MgSO4, 5.5 mM glucose, pH 7.35) and pre-incubated 30 min at 37° C. in 200 μl KRPG containing amikacin, tobramycin, gentamicin, netilmicin, streptomycin, geneticin, glucosamine, mannosamine, galactosamine, or puromycin (1 mg/ml and 100 μg/ml). Catalytic reaction was initiated by addition of benzylamine as substrates and H2O2-detecting mixture containing horseradish peroxidase (final concentration 0.8 U/ml) and Amplex Red reagent (60 μM). The plates were incubated for 1-2 hours at 37° C. in the final volume of 250 μl, the bathing medium was clarified by centrifugation and placed in aliquots (200 μl) into white non-phosphorescent microplates (Cliniplate). Fluorescence intensity of the samples was measured (excitation, 545 nm; emission, 590 nm; Tecan ULTRA fluoropolarometer) and H2O2 concentration was calculated from calibration curves generated by serial dilutions of either standard H2O2 or resorufin, the product of the Amplex Red reaction (Molecular Probes).

[2] = biological target: T1, VAP-1; assay: Tobramycin serum concentration after intravenous injection in VAP KO+TG versus VAP KO mice (fluorescence polarization immunoassay); assay type: in vivo, mouse; set-up: expressed in transfected cells; host or cells: mTIEhVAP-1 transgenic / mouse VAP-1 knockout mice (VAP KO+TG), expression on vasculature; conditions: 3 mg/kg intravenously
Description: The mTIEhVAP-1 line E35 mice expressing human VAP-1 on vasculature were crossed to VAP-1 knockout mice that were previously created by using conventional gene targeting techniques to replace the mouse VAP-1 gene with a nonfunctional mutant-allele. The mTIEhVAP-1 transgene, mouse VAP-1 mutant-allele and endogenous mouse VAP-1 allele were all identified by PCR screening of purified genomic DNA with specific primers and verified immunohistochemically with human and mouse VAP-1 antibodies.
These mice and VAP KO mice as controls received intravenously tobramycin 3 mg/kg and tobramycin concentration from serum was measured after 30 min, 1, 2 and 3 hours after injections using fluorescence polarization immunoassay.

| Molecule | % of inhibition [1] | effect on enzymatic (SSAO) activity of VAP-1, in words [1] | tobramycin concentration in serum, VAP KO+TG mice compared with VAP KO mice ([2]; at 2 and 3 hours, mice expressing human VAP-1 vs VAP KO mice) | difference in serum tobramycin concentration between VAP KO mice and VAP KO+TG mice ([2]; at 3 hours) |
| --- | --- | --- | --- | --- |
| NCC[C@H](O)C(=O)N[C@@H]1C[C@H](N)[C@@H](O[C@H]2O[C@H](CN)[C@@H](O)[C@H](O)[C@H]2O)[C@H](O)[C@H]1O[C@H]1O[C@H](CO)[C@@H](O)[C@H](N)[C@H]1O [Amikacin, amikacin] | 84% | diminished to variable extent | – | – |
| N[C@H]1C(O)O[C@H](CO)[C@H](O)[C@@H]1O (some centres unmarked) [Galactosamine, galactosamine] | 12% | did not significantly inhibit | – | – |
| CN[C@@H]1[C@@H](O)[C@@H](O[C@@H]2[C@@H](O)[C@H](O[C@H]3O[C@H]([C@@H](C)O)[C@@H](O)[C@H](O)[C@H]3N)[C@@H](N)C[C@H]2N)OC[C@]1(C)O [Geneticin, geneticin] | 46% | – | – | – |
| N[C@H]1C(O)O[C@H](CO)[C@@H](O)[C@@H]1O (some centres unmarked) [Glucosamine, glucosamine] | 0% | did not significantly inhibit | – | – |
| N[C@@H]1C(O)O[C@H](CO)[C@@H](O)[C@@H]1O (some centres unmarked) [Mannosamine, mannosamine] | 20% | did not significantly inhibit | – | – |
| CCN[C@@H]1C[C@H](N)[C@@H](O[C@H]2OC(CN)=CC[C@H]2N)[C@H](O)[C@H]1O[C@H]1OC[C@](C)(O)[C@H](NC)[C@H]1O [Netilmicin, netilmicin] | 45% | diminished to variable extent | – | – |
| COc1ccc(C[C@H](N)C(=O)N[C@H]2[C@@H](O)[C@H](n3cnc4c(N(C)C)ncnc43)O[C@@H]2CO)cc1 [Puromycin, puromycin] | 59% | diminished to variable extent | – | – |
| [H]/N=C(/N)N[C@H]1[C@H](O)[C@@H](O)[C@H](O[C@@H]2O[C@@H](C)[C@](O)(C=O)[C@H]2O[C@@H]2O[C@@H](CO)[C@H](O)[C@@H](O)[C@@H]2NC)[C@@H](N/C(N)=N\[H])[C@@H]1O [Streptomicin, streptomycin] | 5% | – | – | – |
| NC[C@H]1O[C@H](O[C@H]2[C@H](O)[C@@H](O[C@H]3O[C@H](CO)[C@@H](O)[C@H](N)[C@H]3O)[C@H](N)C[C@@H]2N)[C@H](N)C[C@@H]1O [Tobramycin, tobramycin] | 78% | diminished to variable extent | lower concentrations | two fold |
| gentamicin | 46% | diminished to variable extent | – | – |
